pEC50: −log10 of the molar value.
Biological target: GABA-A receptor
Test: block of evoked GABA-A receptor currents in layer […] pyramidal neurons

Molecule	pEC50
DEAC450-Glu [compound 7]	~4.48
COc1ccc([N+](=O)[O-])c2c1CCN2C(=O)CC[C@H](N)C(=O)O [MNI-Glu]	3.98
RuBi-Glu	5.11

— PMC4079120 (Journal of the American Chemical Society, 2013)
